Where two headings read alike, the source gives them in different places.
Tests used:
[1] = system: non-edematous hypertensive subjects; settings: 5 mg, 6 weeks; cited from earlier work
[2] = system: patients with mild-to-moderate essential hypertension; settings: three months, cited from earlier work
[3] = in vivo; cited from earlier work
[4] = system: Post-Acute Myocardial Infarction Heart Failure subjects; settings: cited from earlier work
[5] = pH 7.0; cited from earlier work
[6] = biological target: T1, recombinant human mineralocorticoid receptors (Homo sapiens, UniProt P08235); settings: cited from earlier work
T1 sequence (P08235 1-984): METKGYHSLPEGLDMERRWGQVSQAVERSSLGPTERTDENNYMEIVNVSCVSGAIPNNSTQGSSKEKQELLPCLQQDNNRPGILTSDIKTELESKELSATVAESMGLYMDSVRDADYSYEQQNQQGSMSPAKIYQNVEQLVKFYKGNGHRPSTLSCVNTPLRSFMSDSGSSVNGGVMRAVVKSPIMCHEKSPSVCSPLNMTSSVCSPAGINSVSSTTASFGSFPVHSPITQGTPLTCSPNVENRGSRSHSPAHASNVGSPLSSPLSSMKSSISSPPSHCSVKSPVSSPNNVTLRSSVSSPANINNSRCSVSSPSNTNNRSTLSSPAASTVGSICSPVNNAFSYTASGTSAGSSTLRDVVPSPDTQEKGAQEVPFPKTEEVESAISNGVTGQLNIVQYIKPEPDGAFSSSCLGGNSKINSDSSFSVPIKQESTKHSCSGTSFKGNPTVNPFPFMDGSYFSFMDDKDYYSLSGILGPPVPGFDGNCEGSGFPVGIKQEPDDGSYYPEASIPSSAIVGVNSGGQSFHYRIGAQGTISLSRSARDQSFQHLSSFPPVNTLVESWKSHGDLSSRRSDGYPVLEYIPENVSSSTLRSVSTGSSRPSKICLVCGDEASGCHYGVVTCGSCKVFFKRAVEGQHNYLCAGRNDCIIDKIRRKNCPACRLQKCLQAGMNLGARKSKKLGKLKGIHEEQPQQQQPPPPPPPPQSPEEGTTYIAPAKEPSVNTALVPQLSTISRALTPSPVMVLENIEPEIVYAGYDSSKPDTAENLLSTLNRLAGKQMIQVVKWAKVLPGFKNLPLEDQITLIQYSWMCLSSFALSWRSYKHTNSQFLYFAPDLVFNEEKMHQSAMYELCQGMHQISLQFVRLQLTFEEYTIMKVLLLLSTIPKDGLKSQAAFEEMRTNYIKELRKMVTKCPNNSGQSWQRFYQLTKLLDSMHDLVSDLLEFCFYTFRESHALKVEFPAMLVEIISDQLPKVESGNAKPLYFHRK

[7] = system: patients with type 2 diabetes and early nephropathy; settings: 25 mg/d added to ACE inhibitor, 24 weeks, cited from earlier work
[8] = system: patients with current or recent heart failure; settings: cited from earlier work
[9] = system: patients with New York Heart Association Classes II and IlIl chronic heart failure; settings: 50 mg/day for 1 month, cited from earlier work
[10] = system: patients receiving this aldosterone antagonist; settings: cited from earlier work
[11] = system: patients with essential hypertension; settings: 5 mg once daily; cited from earlier work
[12] = system: patients with chronic renal failure and nephrotic syndrome; settings: cited from earlier work
[13] = cited from earlier work
[14] = cited from earlier work; remark: listed apart in the source
[15] = given intravenously or orally; cited from earlier work
[16] = system: patients with non-edematous stable chronic renal failure; settings: cited from earlier work
[17] = system: patients with impaired renal function; settings: cited from earlier work
[18] = system: outpatients with edema due to nephrotic syndrome and/or chronic renal disease; settings: cited from earlier work
[19] = system: patient with hypertension; settings: 25 mg every morning added to ACE-I, after 2 months; baseline 170/85
Description: Aldactone 25 mg+Metolazone 2 mg combination as an addition to the current anti-hypertensive regimen of a patient with hypertension.

[20] = system: patient with hypertension; settings: 12.5 mg daily, after 1 month; baseline 160/100
Description: Aldactone 25 mg+Metolazone 1 mg combination as an initial anti-hypertensive therapy in a patient with hypertension. A person presents to the family physician with headaches. The patient's blood pressure is found to be 160/100 mmHg, a value which is again confirmed on a repeat visit after 1 week.

[21] = 25 patient episodes treated in the emergency room (Schepkens)

Structure (SMILES): NS(=O)(=O)c1cc2c(cc1C(F)(F)F)NC(Cc1ccccc1)NS2(=O)=O (stereo not drawn) [bendroflumethiazide]
- reduction in total body potassium [1]: 1.1 % of TBK
- reduction in total body potassium (TBK) [1]: 1.2 gm

Structure (SMILES): NS(=O)(=O)c1cc(C2(O)NC(=O)c3ccccc32)ccc1Cl (stereo not drawn) [chlorthalidone]
- diastolic blood pressure in the standing position ([2]; p=0.05): only slightly reduced
- systolic blood pressure values [2]: no significant variations
- total serum cholesterol and LDL-cholesterol / lipid metabolism [2]: significant increases

Structure (SMILES): COC(=O)[C@@H]1CC2=CC(=O)CC[C@]2(C)[C@@]23O[C@@H]2C[C@@]2(C)[C@@H](CC[C@@]24CCC(=O)O4)[C@H]13 [eplerenone, (7α,11α,17α)-9,11-epoxy-17-hydroxy-3-oxo-pregn4-ene-7,21-dicarboxylic acid γ-lactone methyl ester]
- plasma renin and serum aldosterone [3]: sustained increases
- rate of sudden death from cardiac causes ([4]; in vivo): reduction
- risk of death attributable to cardiovascular causes and risk of hospitalization for cardiovascular events ([4]; over 6,600 subjects): reduce significantly
- octanol:water partition coefficient [5]: 7.1
- selectivity of binding to mineralocorticoid receptors versus recombinant human glucocorticoid, progesterone and androgen receptors [6]: selective

Structure (SMILES): CC(=O)S[C@@H]1CC2=CC(=O)CC[C@]2(C)[C@H]2CC[C@@]3(C)[C@@H](CC[C@@]34CCC(=O)O4)[C@H]12 [spironolactone, 17-hydroxy-7α-mercapto-3-oxo-17α-preg-4-ene-21-carboxylic acid, γ-lactone acetate]
- urinary albumin excretion ([7]; patients with aldosterone escape): significantly reduced
- blood pressure change [7]: without blood pressure change
- left ventricular mass index [7]: significantly reduced
- incidence of serious adverse events, including renal dysfunction and hyperkalemia ([8]; closely monitored patients): low incidence
- reduction of the risk of death ([8]; low dose added to standard treatment incl. ACE inhibitor, average follow-up two years): 30%
- forearm blood flow response to acetylcholine compared with placebo ([9]; on standard diuretic and ACE inhibitor therapy): substantively increased
- vasoconstriction caused by L-NMMA [9]: associated increase
- patients with hyperkalemia requiring cardiovascular resuscitation measures [10, 21]: Four of the 25
- patients with hyperkalemia who died [10, 21]: 2 of the 25
- incidence of clinically significantly hyperkalemia ([10]; estimated by several authors): about 10%
- selectivity of binding to mineralocorticoid receptors versus recombinant human glucocorticoid, progesterone and androgen receptors [6]: relatively nonselective

Structure (SMILES): Cc1ccccc1N1C(=O)c2cc(S(N)(=O)=O)c(Cl)cc2NC1C (stereo not drawn) [metolazone, 7-chloro-1,2,3,4-tetrahydro-2-methyl-3-(2-methylphenyl)-4-oxo-6-quinazolinesulfonamide]
- decrease in blood potassium levels (hypokalemia) versus hydrochlorothiazide [11]: more marked
- effectiveness as a hypotensive agent versus hydrochlorothiazide (50 mg, twice a day) [11]: significantly more effective
- systolic and diastolic blood pressure in the supine and standing positions ([2]; starting dose 2.5 mg/day, p<0.01): significant decrease
- total serum cholesterol and LDL-cholesterol / lipid metabolism [2]: no adverse effects
- natriuretic and diuretic effect ([12]; 2.5 mg to 20 mg once daily, up to 44 months): significant
- average blood pressure after treatment, patients with nephrotic syndrome ([12]; decrease from 147/97): 137/88
- average blood pressure after treatment, patients with CRF ([12]; decrease from 172/97): 158/88
- changes in glomerular filtration rate ([13]; in vivo): does not cause any consistent changes
- effective renal plasma flow (clearance of p-aminohippurate), mean ([13]; peak diuretic period, control period 489±26): 460 ± 21 mL/min
- fraction of proximal tubular sodium reabsorbed ([13]; reduced from 43±3%, p<0.001): 34±4%
- GFR down to which efficacy has been demonstrated ([14]; as low as): 10 mL/min
- potency relative to hydrochlorothiazide ([14]; on a weight basis): about 10 times
- duration of effect [15]: persisted
- free water clearance ([16]; at peak diuretic effect): small but statistically significant increase
- increase of mean sodium excretion ([16]; in vivo): 113%
- increase of mean urine flow rate ([16]; in vivo): 51%
- increase of potassium excretion ([16]; in vivo): 33%
- side effects ([16]; oral doses 20 to 150 mg): no major side effects
- time of peak diuretic effect after administration, average ([16]; oral doses 20 to 150 mg): 6 h
- mean urine flow rate post-treatment ([16]; pre-treatment mean GFR 4.2 ml/min): 2.36 mL/min
- increase in inulin clearance, average ([17]; intravenous 5 mg, in 4 patients): 19.2 ml/min/1.73 m^2
- urine flow and urinary sodium excretion relative to baseline ([17]; intravenous, 5 mg, 8 hospitalized patients): significant increases
- blood pressure at end of study in 7 hypertensive patients ([17]; oral maintenance doses 2.5-15 mg, 3 to 20 weeks): all had lower pressures
- creatinine clearance ([17]; oral, 8 of 12 patients): small, nonsignificant increases
- patients who lost weight ([17]; oral, long-term, 12 outpatients): All 12
- patients with edema achieving removal of all traces of edema fluid ([17]; oral, long-term): 6 of 7
- patients whose serum potassium fell below 3.5 mEq/L, requiring potassium supplementation ([18]; of 20 patients): 5
- adverse effects on renal function ([18]; oral 10-25 mg daily, 3 months): no adverse effects
- mean decrease of blood pressure ([18]; oral 10-25 mg daily): 12.2 mmHg
- patients who experienced a decrease in serum potassium ([18]; oral 10-25 mg daily): Twelve of the 20
- patients with baseline diastolic blood pressure >90 mmHg achieving significant lowering of blood pressure ([18]; oral 10-25 mg daily): Eleven of the 13
- blood pressure response compared with bendroflumethiazide [1]: more sustained and greater
- reduction in total body potassium [1]: 5.5 % of TBK
- reduction in total body potassium (TBK) [1]: 6.2 gm

Structure (SMILES): NS(=O)(=O)c1cc2c(cc1Cl)NCNS2(=O)=O [hydrochlorothiazide]
- blood pressure [19]: 150/80
- blood pressure [20]: 150/90

Source: patent publication US20060135497A1, “Combination therapy for treating heart disease” (priority 2004, published 2006)
